In ChEMBL document CHEMBL1121861, “Mammalian metabolism of phencyclidine” (J Med Chem, 1981):

Experiments:
[1] = species: Canis familiaris; experiment: Compound was evaluated for the mean locomotor activity ([…]) by the difference in the counts between postinjection and preinjection activities.; type: functional, Canis lupus familiaris
[2] = Half-life determined in the urine of monkey; type: ADME; details: simiiformes
[3] = Half-life determined in the urine of dog; type: ADME, organism-based, Canis lupus familiaris

SMILES | Activity [1] | half-life [2] [h] | half-life [3] [h]
Cl.O=C(O)CCCCNC1(c2ccccc2)CCCCC1 | -1063 |  | 
COC(=O)CCCCNC1(c2ccccc2)CCCCC1.Cl | -1418 |  | 
Cl.O=C(O)CCCCNC1(c2ccccc2)CCCCC1.c1ccc(C2(N3CCCCC3)CCCCC2)cc1 | 2478 |  | 
COC(=O)CCCCNC1(c2ccccc2)CCCCC1.Cl.c1ccc(C2(N3CCCCC3)CCCCC2)cc1 | 2388 |  | 
Cl.c1ccc(C2(N3CCCCC3)CCCCC2)cc1 [PHENCYCLIDINE HYDROCHLORIDE] | 3062 | 2.36 | 2.86
